Two compounds from US20030232986A1, “Inhibitors of caspases” (Vertex Pharmaceuticals Incorporated, priority 1998, published 2003) can be followed below.

The nature of data set [1]: Single pass perfusion in rat: GI wall and liver metabolism, biliary excretion. In kind it is in vitro ADME. The procedure:
Single pass perfusion studies in rat were performed to assess gastrointestinal (GI) wall metabolism (f(g)), liver metabolism (f(h)), and biliary excretion. The method used has been described in Pang, C. S., J. Pharmacol. Exp. Therapeutics, 333, pp. 788-798 (1984).

Another data set concerns the target T1, Caspase-3 (Homo sapiens, UniProt P42574).
T1 sequence (P42574 29-175 limits assumed): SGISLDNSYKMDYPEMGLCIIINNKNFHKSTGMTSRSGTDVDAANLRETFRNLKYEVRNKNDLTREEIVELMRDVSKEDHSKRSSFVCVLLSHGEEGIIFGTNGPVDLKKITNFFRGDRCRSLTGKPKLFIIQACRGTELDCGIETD
T1 sequence (P42574 176-277 limits assumed): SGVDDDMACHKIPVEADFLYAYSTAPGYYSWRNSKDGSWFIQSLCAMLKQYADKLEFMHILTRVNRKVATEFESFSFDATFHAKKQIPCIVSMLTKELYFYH
The data set is described as follows: Caspase-3 enzyme inhibition (Ki). Type of data set: biochemical. The settings on record: substrate Ac-DEVD-pNA 60 μM, 8% glycerol in buffer, 37° C. How it is done: Ki values for test compounds with the various caspases were obtained by the method of Margolin et al. (J. Biol. Chem., 272 pp. 7223-7228 (1997)). Assays were performed in 10 mM Tris (Sigma Corp, St Louis Mo.) pH 7.5, 1 mM Dithiothreitol (DTT, Research Organic INC, Cleveland, Ohio) and 0.1% CHAPS (Pierce, Rockford Ill.) at 37° C. For caspase-3, a solution of 8% glycerol was added to the assay buffer to improve enzyme stability. A 65 μL aliquot of the assay buffer and 5 μL aliquot of the appropriate dilutions of inhibitor in DMSO where pipetted into a 96 well plate, treated with 10 μL of caspase, then diluted in assay buffer (0.5-40 nM active protein by active site titration). A control containing DMSO but no compound was included for each determination. The plates were then incubated for 15 minutes at 37° C., before addition of the appropriate substrate (20 μL, final concentration 1-4×KM, final assay volume 100 μL) to initiate the reaction. Reaction rates were measured at 37° C. either by following the time dependant increase in absorbance at 405 nm (for the pNA substrates) or in fluorescence (Ex 390, Em 460) (for the AMC substrates). The rates obtained were plotted against inhibitor concentration and the data fit to the Morrison tight-binding equation for competitive inhibitors (Morrison, J. F., Biochem. Biophys. Acta, 185 pp. 269-286 (1969)). The substrates used for the individual assays were as follows:
Caspase-3 Ac-DEVD-pNA (Bachem, King of Prussia, Pa.) (final concentration in assay, 60 μM)

Data set [2] deals with Human Peripheral Blood Mononuclear Cells (PBMC), mature IL-1β. The data set is described as follows: PBMC cell assay: IL-1β assay with human peripheral blood mononuclear cells. In kind it is cell-based. The settings on record: LPS-stimulated human PBMC, mature IL-1β in supernatant by ELISA. The method, boiled down:
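Donor PBMC (suspension at 6×10^6 cells/ml) or adherent-enriched monocytes were stimulated with 5 ng/ml LPS (final) alongside 5–6 compound dilutions bracketing the ICE Ki, at 0.1% DMSO final, for 16–18 hr at 37° C, 5% CO2. Mature IL-1β in supernatants was measured by ELISA; IC50 was calculated relative to LPS-only controls.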
(ELISA stands for enzyme-linked immunosorbent assay.)

Another data set addresses T2, Caspase-1 (Homo sapiens, UniProt P29466).
T2 sequence (P29466 120-297 limits assumed): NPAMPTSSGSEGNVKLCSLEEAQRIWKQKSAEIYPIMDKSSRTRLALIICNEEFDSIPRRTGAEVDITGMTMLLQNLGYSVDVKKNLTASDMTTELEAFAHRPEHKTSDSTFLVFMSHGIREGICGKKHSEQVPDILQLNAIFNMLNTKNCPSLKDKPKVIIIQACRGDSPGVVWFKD
T2 sequence (P29466 317-404 limits assumed): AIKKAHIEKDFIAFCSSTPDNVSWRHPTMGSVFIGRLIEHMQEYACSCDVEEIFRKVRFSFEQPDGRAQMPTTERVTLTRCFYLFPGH
The data set is described as follows: Caspase-1 enzyme inhibition (Ki). In kind it is biochemical. The settings on record: substrate Suc-YVAD-pNA 80 μM, 37° C., pH 7.5. The method, boiled down: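 Ki obtained by fitting rate versus inhibitor concentration to the Morrison tight-binding equation for competitive inhibitors, with pNA release read at 405 nm at 37 °C. Substrate Suc-YVAD-pNA (80 μM final) added after 15 min enzyme–inhibitor preincubation in Tris pH 7.5 buffer with DTT and CHAPS.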

Turning to `CC(C)[C@H](NC(=O)c1nccc2ccccc12)C(=O)N[C@@H](C)C(=O)N[C@H](C=O)CC(=O)O` [Example 29b], in data set [1], the “Biliary Excretion” value was “B (Category “B” indicates 5-10%)”. Further, in data set [1] (GI wall metabolism f(g) x liver metabolism f(h)), the “f (g) Xf (h)” value is listed as “A (category “A” indicates <0.25)”. The Ki on Caspase-3 is > 1 µM; on Caspase-1, < 0.01 µM. Further, in data set [2], the IC50 lay in the range of 1 to 2 µM.
`CC(=O)NC(CC(=O)O)C(=O)NC1CCN(C(CC(C)C)C(=O)NC(C=O)CC(=O)O)C1=O` (stereo not shown) [Example 32d]: the Ki on Caspase-3 is 0.01 to 1 µM; at Caspase-1, > 1 µM.

As a reminder, the Ki is the equilibrium dissociation constant of an inhibitor or competing ligand from its target. What is called IC50 is the concentration that inhibits the measured activity by half.
